Test system: moderate-to-severe chronic spontaneous urticaria (CSU)
Assay: Phase 2 CSU study: hives severity score over 7 days (HSS7)
Format: in vivo, human
Design: key to HSS7 Change from baseline, Median / HSS7, Median / HSS7, Max / HSS7 Change from baseline, Q1 / HSS7 Change from baseline, Q3 / HSS7 Change from baseline, Max: 7-day sum of daily hive scores, each 0 = none to 3 = >50 hives
Text: The study comprises a 12 week, randomized, double-blind, placebo-controlled, multi-center, dose-ranging efficacy and safety phase, followed by a 40 week open label extension (OLE) phase (see FIG. 1).
The study consists of three phases and an optional OLE phase.
The UAS is a validated PRO measure. The daily UAS is the sum of the daily Hive Severity Score (HSS, ranging from 0=None to 3=more than 50 hives) and the daily Itch Severity Score (ISS, ranging from 0=None to 3=intense), the 2 key urticaria signs and symptoms which are wheals and itch. The daily UAS scores range from 0 to 6 point/day. Daily UAS scores are summed over 7-day period to create the UAS7, ranging from 0 to 42, and are composed of the HSS7 and ISS7 components. […] Patients were to complete the UAS using the e-diary. The e-diary was to be used once daily on the same time of each day recording of participant's answers to the urticaria activity score over 7 days (UAS7) questionnaire. For participants who entered the OLE phase, their answers to the UAS7 questionnaire were also to be collected from Week 20 to Week24 and from Week 48 to Week 52.
The following secondary endpoints were to be analyzed using the same approach as for the primary endpoint: • Change from baseline in UAS7 at Week 4 • Change from baseline in UAS7 at Week 12 (for US and US reference countries) • Change from baseline in ISS7 at Week 12 (except US and US reference countries) • Change from baseline in HSS7 at Week 12

[1] = Week 1, 400 mg BID, Omalizumab-Naïve Population
[2] = Week 1, 400 mg BID, Patients with Prior Omalizumab Use
[3] = Week 1, 400 mg QPM, Omalizumab-Naïve Population
[4] = Week 1, 400 mg QPM, Patients with Prior Omalizumab Use
[5] = Week 1, 400 mg TID, Omalizumab-Naïve Population
[6] = Week 1, 400 mg TID, Patients with Prior Omalizumab Use
[7] = Week 2, 400 mg BID, Omalizumab-Naïve Population
[8] = Week 2, 400 mg BID, Patients with Prior Omalizumab Use
[9] = Week 2, 400 mg QPM, Omalizumab-Naïve Population
[10] = Week 2, 400 mg QPM, Patients with Prior Omalizumab Use
[11] = Week 2, 400 mg TID, Omalizumab-Naïve Population
[12] = Week 2, 400 mg TID, Patients with Prior Omalizumab Use
[13] = Week 3, 400 mg BID, Omalizumab-Naïve Population
[14] = Week 3, 400 mg BID, Patients with Prior Omalizumab Use
[15] = Week 3, 400 mg QPM, Omalizumab-Naïve Population
[16] = Week 3, 400 mg QPM, Patients with Prior Omalizumab Use
[17] = Week 3, 400 mg TID, Omalizumab-Naïve Population
[18] = Week 3, 400 mg TID, Patients with Prior Omalizumab Use

## CC(C)(C=C(C#N)C(=O)N1CCC[C@@H](n2nc(-c3ccc(Oc4ccccc4)cc3F)c3c(N)ncnc32)C1)N1CCN(C2COC2)CC1 [rilzabrutinib, (R)-2-[3-[4-amino-3-(2-fluoro-4-phenoxy-phenyl)pyrazolo[3,4-d]pyrimidin-1-yl]piperidine-1-carbonyl]-4-methyl-4-[4-(oxetan-3-yl)piperazin-1-yl]pent-2-enenitrile]
Omalizumab-naïve Population, 400 mg TID, ANCOVA
  HSS7 change from baseline at Week 12, LS Mean Diff vs. placebo: −3.24
[1]
  HSS7, Mean (SD): 9.26 (5.76)
  HSS7 Change from baseline, Mean (SD): −5.02 (4.53)
  HSS7 Change from baseline, Median: −5.00
  HSS7 Percent change from baseline, Mean (SD): −36.53 (34.65) %
  HSS7 Percent change from baseline, Median: −28.57%
[2]
  HSS7, Mean (SD): 9.67 (6.41)
  HSS7 Change from baseline, Mean (SD): −5.50 (6.41)
  HSS7 Change from baseline, Median: −3.00
  HSS7 Percent change from baseline, Mean (SD): −34.45 (41.48) %
  HSS7 Percent change from baseline, Median: −17.65%
[3]
  HSS7, Mean (SD): 10.73 (4.90)
  HSS7 Change from baseline, Mean (SD): −4.00 (4.92)
  HSS7 Change from baseline, Median: −3.00
  HSS7 Percent change from baseline, Mean (SD): −25.31 (29.00) %
  HSS7 Percent change from baseline, Median: −20.00%
[4]
  HSS7, Mean (SD): 12.00 (NC)
  HSS7, Median: 12.00
  HSS7 Change from baseline, Mean (SD): −8.00 (NC)
  HSS7 Change from baseline, Median: −8.00
  HSS7 Percent change from baseline, Mean (SD): −40.00 (NC) %
  HSS7 Percent change from baseline, Median: −40.00%
[5]
  HSS7, Mean (SD): 8.26 (4.91)
  HSS7, Median: 8.00
  HSS7 Change from baseline, Mean (SD): −5.40 (5.44)
  HSS7 Change from baseline, Median: −5.00
  HSS7 Percent change from baseline, Mean (SD): −36.74 (35.15) %
  HSS7 Percent change from baseline, Median: −33.33%
[6]
  HSS7, Mean (SD): 4.83 (3.31)
  HSS7, Median: 4.50
  HSS7 Change from baseline, Mean (SD): −11.19 (4.74)
  HSS7 Percent change from baseline, Mean (SD): −70.33 (16.48) %
  HSS7 Percent change from baseline, Median: −71.43%
[7]
  HSS7, Mean (SD): 9.27 (5.49)
  HSS7, Median: 7.50
  HSS7 Change from baseline, Mean (SD): −5.10 (4.74)
  HSS7 Change from baseline, Median: 5.50
  HSS7 Percent change from baseline, Mean (SD): −35.29 (34.55) %
  HSS7 Percent change from baseline, Median: −37.50%
[8]
  HSS7, Mean (SD): 8.17 (7.08)
  HSS7, Median: 9.50
  HSS7 Change from baseline, Mean (SD): −7.00 (8.15)
  HSS7 Change from baseline, Median: −4.50
  HSS7 Percent change from baseline, Mean (SD): −42.16 (46.38) %
  HSS7 Percent change from baseline, Median: −26.47%
[9]
  HSS7, Mean (SD): 10.90 (4.97)
  HSS7 Change from baseline, Mean (SD): −3.83 (4.91)
  HSS7 Change from baseline, Median: 3.00
  HSS7 Percent change from baseline, Mean (SD): −23.50 (30.60) %
  HSS7 Percent change from baseline, Median: −21.43%
[10]
  HSS7, Mean (SD): 13.00 (NC)
  HSS7, Median: 13.00
  HSS7 Change from baseline, Mean (SD): −7.00 (NC)
  HSS7 Change from baseline, Median: −7.00
  HSS7 Percent change from baseline, Mean (SD): −35.00 (NC) %
  HSS7 Percent change from baseline, Median: −35.00%
[11]
  HSS7, Mean (SD): 7.25 (5.05)
  HSS7, Median: 7.00
  HSS7 Change from baseline, Mean (SD): −6.40 (5.94)
  HSS7 Change from baseline, Median: −6.00
  HSS7 Percent change from baseline, Mean (SD): −44.30 (37.78) %
  HSS7 Percent change from baseline, Median: −42.86%
[12]
  HSS7, Mean (SD): 2.83 (3.31)
  HSS7, Median: 1.50
  HSS7 Change from baseline, Mean (SD): −13.19 (5.74)
  HSS7 Change from baseline, Median: −14.00
  HSS7 Percent change from baseline, Mean (SD): -82.7%
  HSS7 Percent change from baseline, Median: −81.38%
[13]
  HSS7, Mean (SD): 8.55 (6.09)
  HSS7, Median: 7.00
  HSS7 Change from baseline, Mean (SD): −5.73 (5.31)
  HSS7 Change from baseline, Median: −5.00
  HSS7 Percent change from baseline, Mean (SD): −40.65 (36.39) %
  HSS7 Percent change from baseline, Median: −41.67%
[14]
  HSS7, Mean (SD): 7.67 (7.00)
  HSS7, Median: 7.50
  HSS7 Change from baseline, Mean (SD): −7.50 (8.22)
  HSS7 Change from baseline, Median: −6.00
  HSS7 Percent change from baseline, Mean (SD): −45.10 (46.71) %
  HSS7 Percent change from baseline, Median: −35.29%
[15]
  HSS7, Mean (SD): 10.41 (4.97)
  HSS7, Median: 9.00
  HSS7 Change from baseline, Mean (SD): −4.32 (4.60)
  HSS7 Change from baseline, Median: −2.00
  HSS7 Percent change from baseline, Mean (SD): −27.98 (28.68) %
  HSS7 Percent change from baseline, Median: −28.57%
[16]
  HSS7, Mean (SD): 10.00 (NC)
  HSS7 Change from baseline, Mean (SD): −10.00 (NC)
  HSS7 Change from baseline, Median: −10.00
  HSS7 Percent change from baseline, Mean (SD): −50.00 (NC) %
  HSS7 Percent change from baseline, Median: −50.00%
[17]
  HSS7, Mean (SD): 7.03 (4.82)
  HSS7, Median: 7.00
  HSS7 Change from baseline, Mean (SD): −6.63 (6.22)
  HSS7 Change from baseline, Median: −7.00
  HSS7 Percent change from baseline, Mean (SD): −47.46 (36.18) %
  HSS7 Percent change from baseline, Median: −48.81%
[18]
  HSS7, Mean (SD): 3.39 (2.63)
  HSS7, Median: 2.67
  HSS7 Change from baseline, Mean (SD): −12.64 (6.13)
  HSS7 Change from baseline, Median: −14.50
  HSS7 Percent change from baseline, Mean (SD): −76.71 (14.38) %
  HSS7 Percent change from baseline, Median: −71.43%

From US20260256792A1, “TREATMENT OF CHRONIC SPONTANEOUS URTICARIA BY ADMINISTERING (R)-2-[3-[4-AMINO-3-(2-FLUORO-4-PHENOXY-PHENYL)PYRAZOLO[3,4-D]PYRIMIDIN-1-YL]PIPERIDINE-1-CARBONYL]-4-METHYL-4-[4-(OXETAN-3-YL)PIPERAZIN-1-YL]PENT-2-ENENITRILE” (priority 2023, published 2026)
